In US10058550B2, “Methods of treating heart failure” (priority 2015, dated 2018):
pEC50: −log10 of the molar value.

The molecules below were run against human APJ receptor (Homo sapiens (Human), UniProt P35414) (assay: biochemical). Conditions: read-out: Activity hAPJ SPA EC50 IP.
Format: biochemical
Summary of the method: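 Agonist-stimulated [35S]GTPγS (0.2 nM) binding was read by SPA after 90 min at room temperature. Buffer: 20 mM HEPES pH 7.5 with 5 mM MgCl2, 200 mM NaCl, 3 μM GDP, 0.1% BSA; membranes were from a stable human APJ CHO line. EC50 values are averages of independent runs, fitted by non-linear regression.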

Chain of human APJ receptor (P35414 whole entry): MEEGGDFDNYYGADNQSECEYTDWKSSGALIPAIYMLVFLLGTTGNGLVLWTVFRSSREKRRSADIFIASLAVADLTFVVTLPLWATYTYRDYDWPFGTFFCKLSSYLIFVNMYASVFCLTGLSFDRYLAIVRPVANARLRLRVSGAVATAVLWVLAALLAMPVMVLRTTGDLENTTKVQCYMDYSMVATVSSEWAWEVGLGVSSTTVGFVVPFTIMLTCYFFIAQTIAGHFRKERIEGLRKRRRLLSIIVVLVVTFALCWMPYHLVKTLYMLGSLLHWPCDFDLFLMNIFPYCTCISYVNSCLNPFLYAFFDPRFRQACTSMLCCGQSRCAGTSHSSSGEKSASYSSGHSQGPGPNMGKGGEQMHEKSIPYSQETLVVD

Question: How did the pEC50 turn out when `COc1cccc(-c2nnc(NS(=O)(=O)[C@@H](C)[C@H](OC)c3ncc(C)cn3)n2-c2cc(C(F)(F)F)cc(C(F)(F)F)c2)n1` [Example 39.0, (1R,2S)-N-(4-(3,5-bis(trifluoromethyl)phenyl)-5-(6-methoxypyridin-2-yl)-4H-1,2,4-triazol-3-yl)-1-methoxy-1-(5-methylpyrimidin-2-yl)propane-2-sulfonamide] was run?
Answer: 6.27

Question: With `COc1cccc(-c2nnc(NS(=O)(=O)[C@@H](C)[C@H](OC)c3ncc(C)cn3)n2-c2c(OC(F)F)cccc2OC(F)F)n1` [Example 41.0, (1R,2S)-N-(4-(2,6-bis(difluoromethoxy)phenyl)-5-(6-methoxypyridin-2-yl)-4H-1,2,4-triazol-3-yl)-1-methoxy-1-(5-methylpyrimidin-2-yl)propane-2-sulfonamide] as the molecule, how does the pEC50 read?
Answer: 9.66

Question: How did the pEC50 turn out when `COc1cccc(-c2nnc(NS(=O)(=O)[C@@H](C)[C@H](OC)c3ncc(C)cn3)n2-c2ccncc2)n1` [Example 42.0, (1R,2S)-1-methoxy-N-(5-(6-methoxypyridin-2-yl)-4-(pyridin-4-yl)-4H-1,2,4-triazol-3-yl)-1-(5-methylpyrimidin-2-yl)propane-2-sulfonamide] was run?
Answer: 7.29

Question: How did the pEC50 turn out when `COc1cccc(-c2nnc(NS(=O)(=O)[C@@H](C)[C@H](OC)c3ncc(C)cn3)n2-c2ccc(Cl)cc2)n1` [Example 45.0, (1R,2S)-N-(4-(4-chlorophenyl)-5-(6-methoxy-2-pyridinyl)-4H-1,2,4-triazol-3-yl)-1-methoxy-1-(5-methyl-2-pyrimidinyl)-2-propanesulfonamide] was run?
Answer: 7.02

Question: How did the pEC50 turn out when `COc1ccc(-n2c(NS(=O)(=O)[C@@H](C)[C@H](OC)c3ncc(C)cn3)nnc2-c2cccc(OC)n2)cc1` [Example 46.0, (1R,2S)-1-methoxy-N-(4-(4-methoxyphenyl)-5-(6-methoxy-2-pyridinyl)-4H-1,2,4-triazol-3-yl)-1-(5-methyl-2-pyrimidinyl)-2-propanesulfonamide] was run?
Answer: 7.12

Question: How did the pEC50 turn out when `COc1cccc(-c2nnc(NS(=O)(=O)[C@@H](C)[C@H](OC)c3ncc(C)cn3)n2-c2cccc(F)c2)n1` [Example 47.0, (1R,2S)-N-(4-(3-fluorophenyl)-5-(6-methoxy-2-pyridinyl)-4H-1,2,4-triazol-3-yl)-1-methoxy-1-(5-methyl-2-pyrimidinyl)-2-propanesulfonamide] was run?
Answer: 8.06

Question: With `CCO[C@H](c1ncc(F)cn1)[C@H](C)S(=O)(=O)Nc1nnc(-c2cccc(OC)n2)n1-c1c(OC)cccc1OC` [Example 48.0, (1R,2S)-N-(4-(2,6-dimethoxyphenyl)-5-(6-methoxy-2-pyridinyl)-4H-1,2,4-triazol-3-yl)-1-ethoxy-1-(5-fluoro-2-pyrimidinyl)-2-propanesulfonamide] as the molecule, how does the pEC50 read?
Answer: 9.74

Question: `COc1cnc([C@@H](OC)[C@H](C)S(=O)(=O)Nc2nnc(-c3cccc(OC)n3)n2-c2c(OC)cccc2OC)nc1` [Example 49.0, (1R,2S)-N-(4-(2,6-dimethoxyphenyl)-5-(6-methoxy-2-pyridinyl)-4H-1,2,4-triazol-3-yl)-1-methoxy-1-(5-methoxy-2-pyrimidinyl)-2-propanesulfonamide] was tested. Which pEC50 did it give?
Answer: 9.77

Question: `CCO[C@H](c1ncc(F)cn1)[C@H](C)S(=O)(=O)Nc1nnc(-c2cccc(OC)n2)n1-c1ccccc1` [Example 50.0, (1R,2S)-1-ethoxy-1-(5-fluoro-2-pyrimidinyl)-N-(5-(6-methoxy-2-pyridinyl)-4-phenyl-4H-1,2,4-triazol-3-yl)-2-propanesulfonamide] was tested. Which pEC50 did it give?
Answer: 8.03

Question: `CCO[C@H](c1ncc(F)cn1)[C@H](C)S(=O)(=O)Nc1nnc(-c2cccnc2)n1-c1c(OC)cccc1OC` [Example 51.0, (1R,2S)-N-(4-(2,6-dimethoxyphenyl)-5-(3-pyridinyl)-4H-1,2,4-triazol-3-yl)-1-ethoxy-1-(5-fluoro-2-pyrimidinyl)-2-propanesulfonamide] was tested. Which pEC50 did it give?
Answer: 9.15

Question: With `COc1cccc(-c2nnc(NS(=O)(=O)[C@@H](C)[C@H](OC)c3ncc(C)cn3)n2-c2ccc3ccccc3c2)n1` [Example 53.0, (1R,2S)-1-methoxy-N-(5-(6-methoxy-2-pyridinyl)-4-(2-naphthalenyl)-4H-1,2,4-triazol-3-yl)-1-(5-methyl-2-pyrimidinyl)-2-propanesulfonamide] as the molecule, how does the pEC50 read?
Answer: 7.28

Question: `COC(=O)c1cccc(-n2c(NS(=O)(=O)[C@@H](C)[C@H](OC)c3ncc(C)cn3)nnc2-c2cccc(OC)n2)c1` [Example 54.0, methyl 3-(3-((((1S,2R)-2-methoxy-1-methyl-2-(5-methyl-2-pyrimidinyl)ethyl)sulfonyl)amino)-5-(6-methoxy-2-pyridinyl)-4H-1,2,4-triazol-4-yl)benzoate] was tested. Which pEC50 did it give?
Answer: 7.92

Question: With `COc1cccc(-c2nnc(NS(=O)(=O)[C@@H](C)[C@H](OC)c3ncc(C)cn3)n2-c2cccc(C#N)c2)n1` [Example 56.0, (1R,2S)-N-(4-(3-cyanophenyl)-5-(6-methoxy-2-pyridinyl)-4H-1,2,4-triazol-3-yl)-1-methoxy-1-(5-methyl-2-pyrimidinyl)-2-propanesulfonamide] as the molecule, how does the pEC50 read?
Answer: 7.51

Question: With `COc1cnc([C@@H](OC)[C@H](C)S(=O)(=O)Nc2nnc(-c3cncc(C)c3)n2-c2c(OC)cccc2OC)nc1` [Example 57.0, (1R,2S)-N-(4-(2,6-dimethoxyphenyl)-5-(5-methyl-3-pyridinyl)-4H-1,2,4-triazol-3-yl)-1-methoxy-1-(5-methoxy-2-pyrimidinyl)-2-propanesulfonamide] as the molecule, how does the pEC50 read?
Answer: 9.26

Question: With `COc1cnc([C@@H](OC)[C@H](C)S(=O)(=O)Nc2nnc(-c3cccnc3)n2-c2c(OC)cccc2OC)nc1` [Example 58.0, (1R,2S)-N-(4-(2,6-dimethoxyphenyl)-5-(3-pyridinyl)-4H-1,2,4-triazol-3-yl)-1-methoxy-1-(5-methoxy-2-pyrimidinyl)-2-propanesulfonamide] as the molecule, how does the pEC50 read?
Answer: 9.30

Question: With `COc1cnc([C@@H](OC)[C@H](C)S(=O)(=O)Nc2nnc(-c3cncc(C)c3)n2-c2ccccc2)nc1` [Example 59.0, (1R,2S)-1-methoxy-1-(5-methoxy-2-pyrimidinyl)-N-(5-(5-methyl-3-pyridinyl)-4-phenyl-4H-1,2,4-triazol-3-yl)-2-propanesulfonamide] as the molecule, how does the pEC50 read?
Answer: 7.59

Question: With `COc1cccc(-c2nnc(NS(=O)(=O)[C@@H](C)[C@H](OC)c3ncc(C)cn3)n2-c2cccc(Br)c2)n1` [Example 60.0, (1R,2S)-N-(4-(3-bromophenyl)-5-(6-methoxy-2-pyridinyl)-4H-1,2,4-triazol-3-yl)-1-methoxy-1-(5-methyl-2-pyrimidinyl)-2-propanesulfonamide] as the molecule, how does the pEC50 read?
Answer: 7.92

Question: How did the pEC50 turn out when `COc1cccc(-c2nnc(NS(=O)(=O)[C@@H](C)[C@H](OC)c3ncc(C)cn3)n2-c2cccc(C)c2)n1` [Example 62.0, (1R,2S)-1-methoxy-N-(5-(6-methoxy-2-pyridinyl)-4-(3-methylphenyl)-4H-1,2,4-triazol-3-yl)-1-(5-methyl-2-pyrimidinyl)-2-propanesulfonamide] was run?
Answer: 8.22

Question: With `COc1cccc(-c2nnc(NS(=O)(=O)[C@@H](C)[C@H](OC)c3ncc(C)cn3)n2-c2ccc(F)c(C(F)(F)F)c2)n1` [Example 63.0, (1R,2S)-N-(4-(4-fluoro-3-(trifluoromethyl)phenyl)-5-(6-methoxy-2-pyridinyl)-4H-1,2,4-triazol-3-yl)-1-methoxy-1-(5-methyl-2-pyrimidinyl)-2-propanesulfonamide] as the molecule, how does the pEC50 read?
Answer: 6.46

Question: With `COc1cccc(-n2c(NS(=O)(=O)[C@@H](C)[C@H](OC)c3ncc(C)cn3)nnc2-c2cccc(OC)n2)c1` [Example 64.0, (1R,2S)-1-methoxy-N-(4-(3-methoxyphenyl)-5-(6-methoxy-2-pyridinyl)-4H-1,2,4-triazol-3-yl)-1-(5-methyl-2-pyrimidinyl)-2-propanesulfonamide] as the molecule, how does the pEC50 read?
Answer: 8.00

Question: How did the pEC50 turn out when `COc1cccc(-c2nnc(NS(=O)(=O)[C@@H](C)[C@H](OC)c3ncc(C)cn3)n2-c2ccc(F)cc2)n1` [Example 65.0, (1R,2S)-N-(4-(4-fluorophenyl)-5-(6-methoxy-2-pyridinyl)-4H-1,2,4-triazol-3-yl)-1-methoxy-1-(5-methyl-2-pyrimidinyl)-2-propanesulfonamide] was run?
Answer: 6.74

Question: With `COc1cccc(-c2nnc(NS(=O)(=O)[C@@H](C)[C@H](OC)c3ncc(C)cn3)n2-c2cccc(Cl)c2)n1` [Example 66.0, (1R,2S)-N-(4-(3-chlorophenyl)-5-(6-methoxy-2-pyridinyl)-4H-1,2,4-triazol-3-yl)-1-methoxy-1-(5-methyl-2-pyrimidinyl)-2-propanesulfonamide] as the molecule, how does the pEC50 read?
Answer: 7.62

Question: With `COc1cccc(-c2nnc(NS(=O)(=O)[C@@H](C)[C@H](OC)c3ncc(C)cn3)n2-c2cc(Cl)cc(Cl)c2)n1` [Example 68.0, (1R,2S)-N-(4-(3,5-dichlorophenyl)-5-(6-methoxy-2-pyridinyl)-4H-1,2,4-triazol-3-yl)-1-methoxy-1-(5-methyl-2-pyrimidinyl)-2-propanesulfonamide] as the molecule, how does the pEC50 read?
Answer: 7.22

Question: With `COc1cccc(-c2nnc(NS(=O)(=O)[C@@H](C)[C@H](OC)c3ncc(C)cn3)n2-c2ccc(F)c(F)c2)n1` [Example 71.0, (1R,2S)-N-(4-(3,4-difluorophenyl)-5-(6-methoxy-2-pyridinyl)-4H-1,2,4-triazol-3-yl)-1-methoxy-1-(5-methyl-2-pyrimidinyl)-2-propanesulfonamide] as the molecule, how does the pEC50 read?
Answer: 6.68

Question: How did the pEC50 turn out when `COc1cccc(-c2nnc(NS(=O)(=O)[C@@H](C)[C@H](OC)c3ncc(C)cn3)n2-c2cccc(C(C)=O)c2)n1` [Example 72.0, (1R,2S)-N-(4-(3-acetylphenyl)-5-(6-methoxy-2-pyridinyl)-4H-1,2,4-triazol-3-yl)-1-methoxy-1-(5-methyl-2-pyrimidinyl)-2-propanesulfonamide] was run?
Answer: 8.04

Question: How did the pEC50 turn out when `COc1cccc(-c2nnc(NS(=O)(=O)[C@@H](C)[C@H](OC)c3ncc(C)cn3)n2-c2c(Cl)cccc2Cl)n1` [Example 73.0, (1R,2S)-N-(4-(2,6-dichlorophenyl)-5-(6-methoxy-2-pyridinyl)-4H-1,2,4-triazol-3-yl)-1-methoxy-1-(5-methyl-2-pyrimidinyl)-2-propanesulfonamide] was run?
Answer: 9.12
